Source: patent publication US11230540B2, “Substituted triazole derivatives and uses thereof” (Bayer Pharma Aktiengesellschaft, priority 2017, dated 2022)
Counter-ions that a name gives are not always drawn.

Legend:
human V1a receptor = molecular target: T1, human V1a receptor (Homo sapiens, UniProt P37288); test: Cellular in vitro assay for vasopressin receptor activity, V1a receptor cell line (aequorin luminescence); assay type: cell-based; settings: for IC50: CHO cell line transfected with human V1a receptor, [Arg8]-vasopressin at EC50 concentration, read-out: IC50 hV1a; for ratio IC50 hV2/hV1a: selectivity ratio of the IC50 values hV2/hV1a
T1 construct: expressed in transfected cells; host or cells: CHO K1 (Chinese hamster ovary), also stably transfected with a modified aequorin
T1 sequence (P37288 whole entry): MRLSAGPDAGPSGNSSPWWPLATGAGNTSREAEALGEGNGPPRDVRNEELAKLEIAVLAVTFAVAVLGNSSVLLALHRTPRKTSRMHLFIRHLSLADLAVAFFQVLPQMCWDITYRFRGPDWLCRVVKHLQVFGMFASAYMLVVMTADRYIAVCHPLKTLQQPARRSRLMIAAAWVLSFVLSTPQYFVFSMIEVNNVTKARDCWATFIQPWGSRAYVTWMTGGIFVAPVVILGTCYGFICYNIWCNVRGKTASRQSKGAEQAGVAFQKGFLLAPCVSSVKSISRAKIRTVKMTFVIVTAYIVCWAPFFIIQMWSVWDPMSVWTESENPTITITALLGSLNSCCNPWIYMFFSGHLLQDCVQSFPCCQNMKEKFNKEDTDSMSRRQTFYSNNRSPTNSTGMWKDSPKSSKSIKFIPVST
Procedure: (§1) B-1. Cellular In Vitro Assay for Determining Vasopressin Receptor Activity
(§2) The identification of agonists and antagonists of the V1a and V2 vasopressin receptors from humans, rats and dogs as well as the quantification of the activity of the compounds of the invention is carried out using recombinant cell lines. These cell lines originally derive from a hamster's ovary epithelial cell (Chinese Hamster Ovary, CHO K1, ATCC: American Type Culture Collection, Manassas, Va. 20108, USA). The test cell lines constitutively express the human, rat or dog V1a or V2 receptors. In case of the […] V1a receptors, cells are also stably transfected with a modified form of the calcium-sensitive photoproteins aequorin (human and rat V1a) or obelin (dog V1a), which, after reconstitution with the cofactor coelenterazine, emit light when there are increases in free calcium concentrations [Rizzuto R, Simpson A W, Brini M, Pozzan T, Nature 358, 325-327 (1992); Illarionov B A, Bondar V S, Illarionova V A, Vysotski E S, Gene 153 (2), 273-274 (1995)]. The resulting vasopressin receptor cells react to stimulation of the recombinantly expressed V1a receptors by intracellular release of calcium ions, which can be quantified by the resulting photoprotein luminescence. The Gs-coupled V2 receptors are stably transfected into cell lines expressing the gene for firefly luciferase under control of a CRE-responsible promoter. Activation of V2 receptors induces the activation of the CRE-responsive promoter via cAMP increase, thereby inducing the expression of firefly luciferase. The light emitted by photoproteins of V1a cell lines as well as the light emitted by firefly luciferase of V2 cell lines corresponds to the activation or inhibition of the respective vasopressin receptor. The bioluminescence of the cell lines is detected using a suitable luminometer [Milligan G, Marshall F, Rees S, Trends in Pharmacological Sciences 17, 235-237 (1996)].
Vasopressin V1a Receptor Cell Lines:
On the day before the assay, the cells are plated out in culture medium (DMEM/F12, 2% FCS, 2 mM glutamine, 10 mM HEPES, 5 μg/ml coelenterazine) in 384-well microtiter plates and kept in a cell incubator (96% humidity, 5% v/v CO2, 37° C.). On the day of the assay, test compounds in various concentrations are placed for 10 minutes in the wells of the microtiter plate before the agonist [Arg^8]-vasopressin at EC50 concentration is added. The resulting light signal is measured immediately in a luminometer.
(§3) Table 1A below lists individual IC50 values for the compounds of the invention (including racemic mixtures as well as separated enantiomers) that were obtained from cell lines transfected with the human V1a or V2 receptor: […]

human V2 receptor = molecular target: T2, human V2 receptor (Homo sapiens, UniProt P30518); test: Cellular in vitro assay for vasopressin receptor activity, V2 receptor cell line (CRE-luciferase); assay type: cell-based; settings: CHO cell line transfected with human V2 receptor; [Arg8]-vasopressin at EC50 concentration; read-out: IC50 hV2
T2 construct: expressed in transfected cells; host or cells: CHO K1 (Chinese hamster ovary) expressing firefly luciferase under a CRE-responsive promoter
T2 sequence (P30518 whole entry): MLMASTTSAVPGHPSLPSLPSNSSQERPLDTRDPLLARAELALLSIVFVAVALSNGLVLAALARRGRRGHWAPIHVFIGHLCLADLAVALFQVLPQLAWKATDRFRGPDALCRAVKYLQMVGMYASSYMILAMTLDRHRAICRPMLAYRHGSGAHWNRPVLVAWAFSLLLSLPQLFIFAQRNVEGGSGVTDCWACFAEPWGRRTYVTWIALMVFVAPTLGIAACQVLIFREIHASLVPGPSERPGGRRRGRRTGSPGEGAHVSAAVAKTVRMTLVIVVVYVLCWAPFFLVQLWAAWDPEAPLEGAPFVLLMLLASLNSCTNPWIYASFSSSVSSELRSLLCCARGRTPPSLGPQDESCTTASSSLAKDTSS
Procedure: as §1, §2
Vasopressin V2 Receptor Cell Lines:
On the day before the assay, the cells are plated out in culture medium (DMEM/F12, 2% FCS, 2 mM glutamine, 10 mM HEPES) in 384-well microtiter plates and kept in a cell incubator (96% humidity, 5% v/v CO2, 37° C.). On the day of the assay, test compounds in various concentrations and the agonist [Arg^8]-vasopressin at EC50 concentration are added together to the wells, and plates are incubated for 3 hours in a cell incubator. Upon addition of the cell lysis reagent Triton™ and the substrate luciferin, luminescence of firefly luciferase is measured in a luminometer.
as §3

IC50 (human V1a receptor) | ratio IC50 hV2/hV1a (human V1a receptor) | IC50 (human V2 receptor) | Structure (SMILES)
1.5 nM | 190.0 | 285 nM | O=CN1CCC(NC(=O)c2nc(Cn3nc(-c4ccc(Cl)cc4)n(C[C@H](O)C(F)(F)F)c3=O)nn2-c2cnccc2Cl)C1 (mixture of isomers) [Example 13, 3-({3-(4-Chlorophenyl)-5-oxo-4-[(2S)-3,3,3-trifluoro-2-hydroxypropyl]-4,5-dihydro-1H-1,2,4-triazol-1-yl}methyl)-1-(4-chloropyridin-3-yl)-N-[1-formylpyrrolidin-3-yl]-1H-1,2,4-triazole-5-carboxamide]
1.12 nM | 7.4 | 8.29 nM | CNC(=O)c1nc(Cn2nc(-c3ccc(Cl)cc3)n(C[C@H](O)C(F)(F)F)c2=O)nn1-c1ccccc1OC [Example 42, 3-({3-(4-Chlorophenyl)-5-oxo-4-[(2S)-3,3,3-trifluoro-2-hydroxypropyl]-4,5-dihydro-1H-1,2,4-triazol-1-yl}methyl)-1-(2-methoxyphenyl)-N-methyl-1H-1,2,4-triazole-5-carboxamide]
9.1 nM | 180.2 | 1640 nM | NNC(=O)c1nc(Cn2nc(-c3ccc(Cl)cc3)n(C[C@H](O)C(F)(F)F)c2=O)nn1-c1ncccc1OC(F)(F)F [Example 11, 3-({3-(4-Chlorophenyl)-5-oxo-4-[(2S)-3,3,3-trifluoro-2-hydroxypropyl]-4,5-dihydro-1H-1,2,4-triazol-1-yl}methyl)-1-[3-(trifluoromethoxy)pyridin-2-yl]-1H-1,2,4-triazole-5-carbohydrazide]
1.54 nM | 47.2 | 72.5 nM | O=C(NCC1(O)CC1)c1nc(Cn2nc(-c3ccc(Cl)cc3)n(C[C@H](O)C(F)(F)F)c2=O)nn1-c1ncccc1C(F)(F)F [Example 55, 3-({3-(4-Chlorophenyl)-5-oxo-4-[(2S)-3,3,3-trifluoro-2-hydroxypropyl]-4,5-dihydro-1H-1,2,4-triazol-1-yl}methyl)-N-[(1-hydroxycyclopropyl)methyl]-1-[3-(trifluoromethyl)pyridin-2-yl]-1H1,2,4-triazole-5-carboxamide]
34.6 nM | 0.2 | 6.95 nM | CNC(=O)c1nc(Cn2nc(-c3ccc(Cl)cc3)n(C[C@H](O)C(F)(F)F)c2=O)nn1-c1cccc(Cl)c1 [Example 34, 1-(3-Chlorophenyl)-3-({3-(4-chlorophenyl)-5-oxo-4-[(2S)-3,3,3-trifluoro-2-hydroxypropyl]-4,5-dihydro-1H-1,2,4-triazol-1-yl}methyl)-N-methyl-1H-1,2,4-triazole-5-carboxamide]
2.5 nM | 191.0 | 478 nM | CC1(C)CN(C(=O)c2nc(Cn3nc(-c4ccc(Cl)cc4)n(C[C@H](O)C(F)(F)F)c3=O)nn2-c2ncccc2C(F)(F)F)CCN1 [Example 49, 5-(4-Chlorophenyl)-2-({5-(3,3-dimethylpiperazine-1-carbonyl)-1-[3-(trifluoromethyl)pyridin-2-yl]-1H-1,2,4-triazol-3-yl}methyl)-4-[(2S)-3,3,3-trifluoro-2-hydroxypropyl]-2,4-dihydro-3H-1,2,4-triazol-3-one hydrochloride]
131 nM | 0.8 | 98.7 nM | CC(C)(C)OC(=O)N1CCN(C(=O)c2nc(Cn3nc(-c4ccc(Cl)cc4)n(C[C@H](O)C(F)(F)F)c3=O)nn2-c2cccc(F)c2)CC1 [Example 40, tert-Butyl 4-{[3-({3-(4-chlorophenyl)-5-oxo-4-[(2S)-3,3,3-trifluoro-2-hydroxypropyl]-4,5-dihydro-1H-1,2,4-triazol-1-yl}methyl)-1-(3-fluorophenyl)-1H-1,2,4-triazol-5-yl]carbonyl}piperazine-1-carboxylate]
0.92 nM | 41.8 | 38.5 nM | O=C(NCC(F)(F)F)c1nc(Cn2nc(-c3ccc(Cl)cc3)n(C[C@H](O)C(F)(F)F)c2=O)nn1-c1ncccc1C(F)(F)F [Example 47, 3-({3-(4-Chlorophenyl)-5-oxo-4-[(2S)-3,3,3-trifluoro-2-hydroxypropyl]-4,5-dihydro-1H-1,2,4-triazol-1-yl}methyl)-N-(2,2,2-trifluoroethyl)-1-[3-(trifluoromethyl)pyridin-2-yl]-1H-1,2,4-triazole-5-carboxamide]
2.15 nM | 44.0 | 94.5 nM | NNC(=O)c1nc(Cn2nc(-c3ccc(Cl)cc3)n(C[C@H](O)C(F)(F)F)c2=O)nn1-c1ncccc1Cl [Example 10, 3-({3-(4-Chlorophenyl)-5-oxo-4-[(2S)-3,3,3-trifluoro-2-hydroxypropyl]-4,5-dihydro-1H-1,2,4-triazol-1-yl}methyl)-1-(3-chloropyridin-2-yl)-1H-1,2,4-triazole-5-carbohydrazide]
1.2 nM | 6.2 | 7.43 nM | O=C(NCC1(O)CC1)c1nc(Cn2nc(-c3ccc(Cl)cc3)n(C[C@H](O)C(F)(F)F)c2=O)nn1-c1ccccc1Cl [Example 32, 1-(2-Chlorophenyl)-3-({3-(4-chlorophenyl)-5-oxo-4-[(2S)-3,3,3-trifluoro-2-hydroxypropyl]-4,5-dihydro-1H-1,2,4-triazol-1-yl}methyl)-N-[(1-hydroxycyclopropyl)methyl]-1H-1,2,4-triazole-5-carboxamide]
75 nM |  | 730 nM | O=C(c1nc(Cn2nc(-c3ccc(Cl)cc3)n(C[C@H](O)C(F)(F)F)c2=O)nn1CCC(F)(F)F)N1CCOCC1 [Example 26, 5-(4-Chlorophenyl)-2-{[5-(morpholin-4-ylcarbonyl)-1-(3,3,3-trifluoropropyl)-1H-1,2,4-triazol-3-yl]methyl}-4-[(2S)-3,3,3-trifluoro-2-hydroxypropyl]-2,4-dihydro-3H-1,2,4-triazol-3-one]
13.5 nM | 4.7 | 64 nM | O=C(NCC(F)(F)F)c1nc(Cn2nc(-c3ccc(Cl)cc3)n(C[C@H](O)C(F)(F)F)c2=O)nn1-c1cccnc1Cl [Example 18, 3-({3-(4-Chlorophenyl)-5-oxo-4-[(2S)-3,3,3-trifluoro-2-hydroxypropyl]-4,5-dihydro-1H-1,2,4-triazol-1-yl}methyl)-1-(2-chloropyridin-3-yl)-N-(2,2,2-trifluoroethyl)-1H-1,2,4-triazole-5-carboxamide]
0.83 nM | 569.7 | 470 nM | CC(C)(N)CNC(=O)c1nc(Cn2nc(-c3ccc(Cl)cc3)n(C[C@H](O)C(F)(F)F)c2=O)nn1-c1ncccc1OC(F)(F)F [Example 3, N-(2-Amino-2-methylpropyl)-3-({3-(4-chlorophenyl)-5-oxo-4-[(2S)-3,3,3-trifluoro-2-hydroxypropyl]-4,5-dihydro-1H-1,2,4-triazol-1-yl}methyl)-1-[3-(trifluoromethoxy)pyridin-2-yl]-1H-1,2,4-triazole-5-carboxamide]
47 nM | 0.6 | 28.1 nM | O=C(NC1CC1)c1nc(Cn2nc(-c3ccc(Cl)cc3)n(C[C@H](O)C(F)(F)F)c2=O)nn1-c1cccc(F)c1 [Example 39, 3-({3-(4-Chlorophenyl)-5-oxo-4-[(2S)-3,3,3-trifluoro-2-hydroxypropyl]-4,5-dihydro-1H-1,2,4-triazol-1-yl}methyl)-N-cyclopropyl-1-(3-fluorophenyl)-1H-1,2,4-triazole-5-carboxamide]
